Assay results taken from patent US8153663B2, “3-amino-indazole or 3-amino-4,5,6,7-tetrahydro-indazole derivatives” (Hoffmann-La Roche Inc., priority 2008, dated 2012).

The molecules below were run against T1, FXR ligand binding domain (GST-FXR LBD fusion protein, human FXR aa 193-473) (Homo sapiens, UniProt Q96RI1) (assay: Radioligand binding assay (radioligand displacement, scintillation proximity)). Conditions: 40 nM GST-FXR LBD on SPA beads, radioligand 2,N-dicyclohexyl-2-[2-(2,4 dimethoxy-phenyl)-benzoimidazol-1-yl]-acetamide, RT 30 minutes.
T1 construct: made in house; host or cells: E. coli BL21(pLysS)
T1 sequence (Q96RI1 193-472 isoform Q96RI1-2 limits assumed): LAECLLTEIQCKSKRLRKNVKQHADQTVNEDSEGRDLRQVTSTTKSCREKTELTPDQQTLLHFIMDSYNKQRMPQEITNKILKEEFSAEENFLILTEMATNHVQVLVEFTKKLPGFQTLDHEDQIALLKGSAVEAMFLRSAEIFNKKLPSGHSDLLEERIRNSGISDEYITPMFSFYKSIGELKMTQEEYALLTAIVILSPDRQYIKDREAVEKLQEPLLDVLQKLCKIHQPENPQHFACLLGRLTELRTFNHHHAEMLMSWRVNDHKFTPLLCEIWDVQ
Protocol: The following tests were carried out in order to determine the activity of the compounds of formula I. Background information on the binding assay can be found in: Nichols J S et al. “Development of a scintillation proximity assay for peroxisome proliferator-activated receptor gamma ligand binding domain”, (1998) Anal. Biochem. 257: 112-119.
Bacterial and mammalian expression vectors were constructed to produce glutathione-s-transferase (GST) and Gal4 DNA binding domain (GAL) proteins fused to the ligand binding domain (LBD) of human FXR (aa 193-473). To accomplish this, the portions of the sequences encoding the FXR LBD were amplified by polymerase chain reaction (PCR) from a full-length clone by PCR and then subcloned into the plasmid vectors. The final clone was verified by DNA sequence analysis.
The induction, expression, and subsequent purification of GST-LBD fusion protein was performed in E. coli strain BL21(pLysS) cells by standard methods (Current Protocols in Molecular Biology, Wiley Press, ed. Ausubel et al).
Radioligand Binding Assay
Binding of test substances to the FXR ligand binding domain was assessed in a radioligand displacement assay. The assay was performed in a buffer consisting of 50 mM Hepes, pH 7.4, 10 mM NaCl, 5 mM MgCl2. For each reaction well in a 96-well plate, 40 nM of GST-FXR LBD fusion protein was bound to 10 μg glutathione ytrium silicate SPA beads (Pharmacia Amersham) in a final volume of 50 μl by shaking. A radioligand (e.g. 40 nM) of 2,N-dicyclohexyl-2-[2-(2,4 dimethoxy-phenyl)-benzoimidazol-1-yl]-acetamide) was added, and the reaction incubated at RT for 30 minutes in the presence of test compounds followed by scintillation proximity counting. All binding assays were performed in 96-well plates and the amount of bound ligand was measured on a Packard TopCount using OptiPlates (Packard). Dose response curves were performed within a range of concentration from 6×10^−9 M to 2.5×10^−5 M.
`O=C(NC1CCCCC1)N(c1c2ccccc2nn1-c1ccccc1)C1CCCCC1` [Example 1, 1,3-Dicyclohexyl-1-(2-phenyl-2H-indazol-3-yl)-urea] showed an IC50 of 40 nM. In the case of `O=C(Nc1ccccc1F)N(c1c2ccccc2nn1-c1ccccc1)C1CCCCC1` [Example 3, 1-Cyclohexyl-3-(2-fluoro-phenyl)-1-(2-phenyl-2H-indazol-3-yl)-urea], the IC50 is reported as 830 nM. In the case of `CCCCN(C(=O)NC1CCCCC1)c1c2ccccc2nn1-c1ccc(Cl)cc1` [Example 4, 1-Butyl-1-[2-(4-chloro-phenyl)-2H-indazol-3-yl]-3-cyclohexyl-urea], the IC50 is reported as 180 nM. Molecule `O=C(O)c1ccc(NC(=O)N(Cc2ccccc2)c2c3ccccc3nn2-c2ccc(Cl)cc2)c(Cl)c1` [Example 9, 4-{3-Benzyl-3-[2-(4-chloro-phenyl)-2H-indazol-3-yl]-ureido}-3-chloro-benzoic acid] has an IC50 of 1080 nM. For `O=C(NC1CCCCC1)N(c1c2ccccc2nn1-c1ccc(Cl)cc1)C1CCOCC1` [Example 10, 1-[2-(4-Chloro-phenyl)-2H-indazol-3-yl]-3-cyclohexyl-1-(tetrahydro-pyran-4-yl)-urea], the IC50 was 660 nM. `O=C(NC1CCCCC1)N(c1c2ccccc2nn1-c1ccc(Cl)cc1)C1CCCCC1` [Example 11, 1-[2-(4-Chloro-phenyl)-2H-indazol-3-yl]-1,3-dicyclohexyl-urea] gave an IC50 of 20 nM. Work on `CCCCN(C(=O)Nc1ccc(C(=O)O)cc1Cl)c1c2ccccc2nn1-c1ccc(Cl)cc1` [Example 12, 4-{3-Butyl-3-[2-(4-chloro-phenyl)-2H-indazol-3-yl]-ureido}-3-chloro-benzoic acid] yielded an IC50 of 790 nM. With `O=C(NC1CCCCC1)N(c1ccccc1)c1c2ccccc2nn1-c1ccc(Cl)cc1` [Example 15, 1-[2-(4-Chloro-phenyl)-2H-indazol-3-yl]-3-cyclohexyl-1-phenyl-urea] the IC50 was 460 nM. `O=C(O)c1ccc(NC(=O)N(c2c3cc(F)c(F)cc3nn2-c2ccc(Cl)cc2)C2CCCCC2)c(Cl)c1` [Example 16, 3-Chloro-4-{3-[2-(4-chloro-phenyl)-5,6-difluoro-2H-indazol-3-yl]-3-cyclohexyl-ureido}-benzoic acid] gave an IC50 of 400 nM. `COCCN(C(=O)NC1CCCCC1)c1c2ccccc2nn1-c1ccc(Cl)cc1` [Example 17, 1-[2-(4-Chloro-phenyl)-2H-indazol-3-yl]-3-cyclohexyl-1-(2-methoxy-ethyl)-urea] gave an IC50 of 2330 nM. `O=C(NC1CCCCC1)N(c1cccc(Cl)c1)c1c2ccccc2nn1-c1ccc(Cl)cc1` [Example 19, 1-(3-Chloro-phenyl)-1-[2-(4-chloro-phenyl)-2H-indazol-3-yl]-3-cyclohexyl-urea] showed an IC50 of 20 nM. `O=C(O)Cc1ccc(NC(=O)N(c2c3ccccc3nn2-c2ccc(Cl)cc2)C2CCCCC2)c(Cl)c1` [Example 21, (3-Chloro-4-{3-[2-(4-chloro-phenyl)-2H-indazol-3-yl]-3-cyclohexyl-ureido}-phenyl)-acetic acid] gave an IC50 of 720 nM. In the case of `CCOc1cccc(N(C(=O)NC2CCCCC2)c2c3ccccc3nn2-c2ccc(Cl)cc2)c1` [Example 25, 1-[2-(4-Chloro-phenyl)-2H-indazol-3-yl]-3-cyclohexyl-1-(3-ethoxy-phenyl)-urea], the IC50 is reported as 790 nM. With `O=C(O)CCc1ccc(NC(=O)N(c2c3ccccc3nn2-c2ccc(Cl)cc2)C2CCCCC2)c(F)c1` [Example 26, 3-(4-{3-[2-(4-Chloro-phenyl)-2H-indazol-3-yl]-3-cyclohexyl-ureido}-3-fluoro-phenyl)-propionic acid] the IC50 was 340 nM. For `O=C(NC1CCCCC1)N(c1ccc(F)c(Cl)c1)c1c2ccccc2nn1-c1ccc(Cl)cc1` [Example 28, 1-(3-Chloro-4-fluoro-phenyl)-1-[2-(4-chloro-phenyl)-2H-indazol-3-yl]-3-cyclohexyl-urea], the IC50 was 70 nM. `O=C(O)c1ccc(NC(=O)N(c2c3ccccc3nn2-c2ccc(Cl)cc2)C2CCC2)c(Cl)c1` [Example 31, 3-Chloro-4-{3-[2-(4-chloro-phenyl)-2H-indazol-3-yl]-3-cyclobutyl-ureido}-benzoic acid] showed an IC50 of 4310 nM. In the case of `CC(C)(C(=O)O)c1ccc(NC(=O)N(c2c3ccccc3nn2-c2ccc(Cl)cc2)C2CCCCC2)c(F)c1` [Example 32, 2-(4-{3-[2-(4-Chloro-phenyl)-2H-indazol-3-yl]-3-cyclohexyl-ureido}-3-fluoro-phenyl)-2-methyl-propionic acid], the IC50 is reported as 3350 nM. For `O=C(NC1CCCCC1)N(c1cccc(Cl)c1)c1c2ccc(F)cc2nn1-c1cccc(Cl)c1` [Example 35, 1-(3-Chloro-phenyl)-1-[2-(3-chloro-phenyl)-6-fluoro-2H-indazol-3-yl]-3-cyclohexyl-urea], the IC50 was 20 nM. `O=C(OC1CCCCC1)N(c1c2ccccc2nn1-c1ccc(Cl)cc1)C1CCCCC1` [Example 37, [2-(4-Chloro-phenyl)-2H-indazol-3-yl]-cyclohexyl-carbamic acid cyclohexyl ester] was tested, and the IC50 was 60 nM. In the case of `O=C(NC1CCCC1)N(c1c2ccccc2nn1-c1ccc(Cl)cc1)C1CCCC1` [Example 38, 1-[2-(4-Chloro-phenyl)-2H-indazol-3-yl]-1,3-dicyclopentyl-urea], the IC50 is reported as 240 nM. `O=C(NC1CCCCC1)N(c1c2ccc(F)cc2nn1-c1ccc(Cl)cc1)C1CCCCC1` [Example 40, 1-[2-(4-Chloro-phenyl)-6-fluoro-2H-indazol-3-yl]-1,3-dicyclohexyl-urea] showed an IC50 of 20 nM. Work on `O=C(N[C@H]1CC[C@H](O)CC1)N(c1cccc(Cl)c1)c1c2ccccc2nn1-c1ccc(Cl)cc1` [Example 41, trans-1-(3-Chloro-phenyl)-1-[2-(4-chloro-phenyl)-2H-indazol-3-yl]-3-(4-hydroxy-cyclohexyl)-urea] yielded an IC50 of 300 nM. In the case of `O=C(NC1CCCCC1)N(c1cccc(Cl)c1)c1c2cc(F)c(F)cc2nn1-c1cccc(Cl)c1` [Example 43, 1-(3-Chloro-phenyl)-1-[2-(3-chloro-phenyl)-5,6-difluoro-2H-indazol-3-yl]-3-cyclohexyl-urea], the IC50 is reported as 80 nM. With `O=C(NC1CCCCC1)N(c1cccc(Cl)c1)c1c2ccc(F)cc2nn1-c1ccc(Cl)cc1` [Example 44, 1-(3-Chloro-phenyl)-1-[2-(4-chloro-phenyl)-6-fluoro-2H-indazol-3-yl]-3-cyclohexyl-urea] the IC50 was 100 nM.
